Measured values reported in patent US4975434A, “Antiviral and anticancer cyclopentenyl cytosine” (priority 1989, dated 1990).
Converted amounts (≈) assume the structure as drawn. “And” between values parts separate entries of the source, which are not always exact repeats. Equal entries are not always repeated. “Also recorded” adds a separate entry of the source.

Columns and labels:
[1] = tested on: Herpes simplex type 1 (TK+), strain E-377; assay: Cytopathogenic inhibition test, HSV-1 TK+; format: cell-based
[2] = tested on: Varicella-Zoster virus, isolate DM625; assay: Varicella-Zoster Virus (VZV) Plaque Reduction Assay; format: cell-based
[3] = tested on: Vesicular Stomatitis virus, strain Indiana; format: cell-based
[4] = tested on: Yellow Fever virus, strain Asibi; assay: microbe, parasite or virus in culture; format: cell-based, Yellow Fever virus; host Vero cells
Rhinovirus 1A = assay: Antiviral activity against rhinovirus 1A; format: cell-based; conditions: result in words
Rift Valley Fever virus = conditions: USAMRIID, Fort Detrick
c-myc mRNA = c-myc mRNA levels in HL-60 cells; format: cell-based, human
CTP pools = assay: Nucleotide (CTP, UTP, ATP, GTP) levels in treated cells (HL-60); format: cell-based, human
CTP levels = CTP levels in normal and tumor tissue of L1210 bearing mice; format: in vivo, mouse; conditions: normal vs tumor tissue of L1210 bearing mice
[5] = tested on: phosphorylation of uridine; assay: Inhibition of uridine phosphorylation
A549 Lung = assay: Human tumor xenograft in athymic mice, A549 lung (subrenal capsule)
LOX Melanoma = assay: Human tumor xenograft in athymic mice, LOX melanoma (intraperitoneal)

## Nc1ccn([C@@H]2C=C(CO)[C@@H](O)[C@H]2O)c(=O)n1 [CPE-C]
[1]; Human alphaherpesvirus 1, Vero cells, strain E-377, inhibition of virus-induced cytopathogenic effects, read-out: ID50 (the source's name)
  IC50: 0.3 µg/mL (≈ 1.25 µM)
[1]; Vero cells, strain E-377
  VR (virus rating): 3.8
[1]; result in words
  antiviral activity: greater than arabinosyl adenine (ara-A); also recorded: Potent activity
[2]; Human alphaherpesvirus 3, 144 h, 0.01 μg/ml, Huf cells
  inhibition at 0.01 µg/mL: 0%
[2]; Human alphaherpesvirus 3, 144 h, 0.032 μg/ml, Huf cells
  inhibition at 0.032 µg/mL: 3%
[2]; Human alphaherpesvirus 3, 144 h, 0.1 μg/ml, Huf cells
  inhibition at 0.1 µg/mL: 21%
[2]; Human alphaherpesvirus 3, 144 h, 0.32 μg/ml, Huf cells
  inhibition at 0.32 µg/mL: 33%
[2]; Human alphaherpesvirus 3, 144 h, 1.0 μg/ml, Huf cells
  inhibition at 1 µg/mL: 36%
[2]; Human alphaherpesvirus 3, 144 h, 3.2 μg/ml, Huf cells
  inhibition at 3.2 µg/mL: 33%
[2]; Human alphaherpesvirus 3, 144 h, 10 μg/ml, Huf cells
  inhibition at 10 µg/mL: 33%
[2]; Human alphaherpesvirus 3, 144 h, 100 μg/ml, Huf cells
  inhibition at 100 µg/mL: 41%
[2]; Human alphaherpesvirus 3, 144 h, 320 μg/ml, Huf cells
  inhibition at 320 µg/mL: 36%
[2]; result in words
  antiviral activity: Potent activity; also recorded: Activity was observed for both compounds
[3]; L929 cells, strain Indiana, two determinations
  VR (virus rating): 2.4 and 3.0
[3]; minimum toxic drug concentration / ID50, L929 cells
  TI (therapeutic index): 0.6 and 0.4
[3]; result in words
  antiviral activity: Good activity; also recorded: Virus ratings greater than two
[4]; Vero cells, strain Asibi
  VR (virus rating): 0.9
[4]; Yellow fever virus, Vero, read-out: ID50
  IC50: 5.05 µg/mL (≈ 21.1 µM)
[4]; minimum toxic drug concentration / ID50, Vero cells
  TI (therapeutic index): 0.1
Rhinovirus 1A
  antiviral activity: Activity was not seen
Rift Valley Fever virus
  antiviral activity: particularly active
c-myc mRNA
  inhibition of c-myc mRNA levels: more pronounced than the reduction in total cellular RNA synthesis; also recorded: reduction of c-myc RNA levels
CTP pools; HL-60
  CTP levels following drug removal: sustained reduction in CTP levels
CTP pools; during CPE-C treatment
  level of CTP: rapid and pronounced inhibition
CTP pools; during CPE-C treatment, HL-60
  half-life for the disappearance of CTP: 1.5 to 2 h
  level of UTP, ATP or GTP: not of UTP, ATP or GTP
CTP pools; treated cells
  level of CTP pools: near total abrogation of CTP pools
CTP levels
  tissue specificity of CTP reduction: some tissuespecificity towards the tumor
[5]
  inhibition of phosphorylation of uridine: inhibited competitively the phosphorylation of uridine
A549 Lung
  growth inhibition: 100%
A549 Lung; A549 experiments 1 and 2, 1.5 and 2.0 mg/kg/injection, each group of six mice
  Toxicity: weight loss and deaths: weight loss and one or two deaths
A549 Lung; Table III Experiment 1, SRC, IP QD1-9, OD 1.5 mg/kg/injection, day 0 to 11
  % Tumor Inhibition (negative value denotes tumor regression): -59%
A549 Lung; Table III Experiment 2, SRC, IP QD1-9, OD 2.0 mg/kg/injection, day 0 to 11
  % Tumor Inhibition: 92%
LOX Melanoma; 2.25 mg/kg, QD 1-9
  tumor cell kill: two-log tumor cell kill
LOX Melanoma; LOX xenograft
  potency relative to 3DU: about 100 times
LOX Melanoma; Table III Experiment 1, tumor IP, IP QD1-9, OD 1.0 mg/kg/injection
  % ILS: 119%
LOX Melanoma; Table III Experiment 2, tumor IP, IP QD1-9, OD 2.25 mg/kg/injection
  % ILS: 80%
LOX Melanoma; Table IV, CPE-C 1.5 mg/kg, QD1-9
  % ILS: 58%
LOX Melanoma; Table IV, CPE-C 2.25 mg/kg, QD1-9
  % ILS: 80%
LOX Melanoma; in vivo
  difference in tumor burden between CPE-C and 3DU: five-log difference in tumor burden
LOX Melanoma; intraperitoneally implanted
  increase in life span: about 100%
LOX Melanoma; result in words
  activity: Good activity
